According to patent US20110039763A1, “TARGETED ANTIMICROBIAL MOIETIES” (C3 JIAN, INC., priority 2009, published 2011):

Key:
microorganisms [1] = assay: Morphology, biofilm and growth disrupting peptides (Table 5); format: cell-based; parameters: key: A: Peptide aggregates; B: Less hyphal formation; Clumps; Diffuse clumps and small polyps; F: Diffuse growth; H: Thin; I: Growth inhibition; Microcolony formation; Rippled; Small polyps; Thick; W: Halo formation on top, microlonies on bottom
Source text: In certain embodiments peptides that induce alterations in phenotype or other biological activities can also be used as antimicrobial effector moieties.

microorganisms [2] = assay: Peptide activities: targeting/binding, antimicrobial, growth or phenotype altering (Tables 7, 8); format: cell-based; conditions: peptides having multiple activities
Source text: In certain embodiments, peptides described herein can have multiple activities. Thus for example, a peptide can have both binding/targeting activity and antimicrobial activity. Such peptides can be used, e.g., in a chimeric construct, for any or all of these properties. Thus, for example, a peptide designated “B” in Table 8 can be used as a targeting peptide. If it is also designated G or M it can also be used for antimicrobial activity.
Table 8. Peptides Having Multiple Activities. B: Targeting/Binding Activity; M: Antimicrobial Activity; G: GROWTH or Phenotype Altering.

microorganisms [3] = assay: Targeting peptide binding to target microorganisms (Tables 3, 10, 12); conditions: microorganism(s) the targeting peptide binds; binding in aqueous buffers varied with peptide solubility, preferably 1x PBS

Row | Substance | Organism, effect: MRSA (microorganisms [1]; MRSA) | Organism, effect: S. epidermidis (microorganisms [1]; S. epidermidis) | Activities (microorganisms [2]) | Organism, effect (microorganisms [1]; S. pneumoniae) | Organism, effect: M. luteus (microorganisms [1]; M. luteus) | Organism, effect: C. jeikeium (microorganisms [1]) | further results
1 | ALCSVIKAIELGIINVHLQ [PF-366] | MRSA (D) | S. epidermidis (R) | G B | – | – | – | Organism, effect: C. jejuni (microorganisms [1]): C. jejuni (D); Organism, effect: E. coli (microorganisms [1]): E. coli (C); Organism, effect: E. faecalis (microorganisms [1]; E. faecalis): E. faecalis (C); Organism, effect: P. aeruginosa (microorganisms [1]): P. aeruginosa (A); Organism, effect: S. pneumoniae (microorganisms [1]; S. pneumoniae): S. pneumoniae (C)
2 | EILNNNQVIKELTMKYKTQFESNLGGWTARARR [PF-580] | – | – | G B | S. pneumoniae (C) | – | – | Organism, effect (microorganisms [1]; M. luteus): M. luteus (C); Organism, effect (microorganisms [1]; MRSA): MRSA (M); Organism, effect (microorganisms [1]; S. epidermidis): S. epidermidis (M)
3 | MGIIAGIIKVIKSLIEQFTGK [PF-007] | MRSA (R) | S. epidermidis (A) | G B | – | M. luteus (A) | – | Organism, effect: E. coli (microorganisms [1]): E. coli (A); Organism, effect: E. faecalis (microorganisms [1]; E. faecalis): E. faecalis (A)
4 | MIHLTKQNTMEALHFIKQFYDMFFILNFNV [PF-040] | MRSA (D) | S. epidermidis (D) | G B | – | M. luteus (D) | C. jeikeium (D) | Organism, effect: B. subtilis (microorganisms [1]): B. subtilis (D); Organism, effect: C. jejuni (microorganisms [1]): C. jejuni (D); Organism, effect: E. coli (microorganisms [1]): E. coli (C); Organism, effect: P. mirabilis (microorganisms [1]; P. mirabilis): P. mirabilis (C); Organism, effect: S. mutans (microorganisms [1]; S. mutans, class symbol): S. mutans (F); Organism, effect: S. pneumoniae (microorganisms [1]; S. pneumoniae): S. pneumoniae (D)
5 | PF-001: peptide having multiple activities (MNNWIIVAQLSVTVINEIIDIMKEKQKGGK; Peptide with targeting and/or antimicrobial activity) | MRSA (R) | S. epidermidis (C) | G B | – | M. luteus (C) | C. jeikeium (D) | –
6 | PF-004: peptide having multiple activities (ARLSKAIIIAVIVVYHLDVRGLF; Peptide with targeting and/or antimicrobial activity) | MRSA (R) | S. epidermidis (A) | G B | – | M. luteus (A) | C. jeikeium (A) | –
7 | PF-012: peptide having multiple activities (WRGPNTEAGGKSANNIVQVGGAPT; Peptide with targeting and/or antimicrobial activity) | MRSA (R) | S. epidermidis (S) | G B | – | M. luteus (C) | C. jeikeium (A) | –
8 | PF-022: peptide having multiple activities (MINELKNKNSGIMNNYVVTKESKL; Peptide with targeting and/or antimicrobial activity) | MRSA (R) | S. epidermidis (D) | G B | – | M. luteus (A) | C. jeikeium (A) | –
9 | PF-030: peptide having multiple activities (MTCHQAPTTTHQSNMA; Peptide with targeting and/or antimicrobial activity) | MRSA (R) | S. epidermidis (D) | G B | – | M. luteus (C) | C. jeikeium (C) | –
10 | PF-042: peptide having multiple activities (LLLSYFRYTGALLQSLF; Peptide with targeting and/or antimicrobial activity) | MRSA (R) | S. epidermidis (D) | G B | – | M. luteus (C) | C. jeikeium (S) | –
11 | PF-057: peptide having multiple activities (TMIVISIPRFEEYMKARHKKWM; Peptide with targeting and/or antimicrobial activity) | MRSA (M) | S. epidermidis (D) | G B | – | M. luteus (C) | C. jeikeium (A) | Organism, effect: C. albicans (microorganisms [1]; C. albicans): C. albicans (A); Organism, effect: C. jejuni (microorganisms [1]): C. jejuni (D); Organism, effect: E. coli (microorganisms [1]): E. coli (M); Organism, effect: E. faecalis (microorganisms [1]; E. faecalis): E. faecalis (A); Organism, effect: S. pneumoniae (microorganisms [1]; S. pneumoniae): S. pneumoniae (R)
12 | PF-063: peptide having multiple activities (IAAIIVLVLFQKGLLQIFNWILIQLQ; Peptide with targeting and/or antimicrobial activity) | MRSA (M) | S. epidermidis (R) | G B | – | M. luteus (R) | C. jeikeium (D) | Organism, effect: B. subtilis (microorganisms [1]): B. subtilis (C); Organism, effect: C. jejuni (microorganisms [1]): C. jejuni (D); Organism, effect: P. aeruginosa (microorganisms [1]): P. aeruginosa (A); Organism, effect: S. pneumoniae (microorganisms [1]; S. pneumoniae): S. pneumoniae (D)
13 | PF-067: peptide having multiple activities (DLIVKVHICFVVKTASGYCYLNKREAQAAI; Peptide with targeting and/or antimicrobial activity) | MRSA (M) | S. epidermidis (D) | G B | – | M. luteus (R) | C. jeikeium (D) | Organism, effect: B. subtilis (microorganisms [1]): B. subtilis (C); Organism, effect: C. jejuni (microorganisms [1]): C. jejuni (D); Organism, effect: P. aeruginosa (microorganisms [1]): P. aeruginosa (A); Organism, effect: S. pneumoniae (microorganisms [1]; S. pneumoniae): S. pneumoniae (D)
14 | PF-076: peptide having multiple activities (chain 1 LYQYELLSKEEYLKCTLIINQRRNEQK; chain 2 LYQYELLSKEEYLKCTLIINQRRNEQK; Peptide with targeting and/or antimicrobial activity) | MRSA (R) | S. epidermidis (S) | G B | – | M. luteus (A) | C. jeikeium (A) | –
15 | PF-125: peptide having multiple activities (chain 1 YVVGALVILAVAGLIYSMLRKA; chain 2 YVVGALVILAVAGLIYSMLRKA; Peptide with targeting and/or antimicrobial activity) | – | S. epidermidis (D) | G B | – | M. luteus (C) | – | –
16 | PF-139: peptide having multiple activities (chain 1 ALSKPAIQARTLCRRQDPP; chain 2 ALSKPAIQARTLCRRQDPP; Peptide with targeting and/or antimicrobial activity) | – | S. epidermidis (M) | G B | – | M. luteus (C) | C. jeikeium (R) | –
17 | PF-140: peptide having multiple activities (chain 1 FHRRVIRASEWALTTRSFSTPLRSAAR; chain 2 FHRRVIRASEWALTTRSFSTPLRSAAR; Peptide with targeting and/or antimicrobial activity) | MRSA (M) | S. epidermidis (D) | G B | – | M. luteus (R) | C. jeikeium (D) | Organism, effect: C. albicans (microorganisms [1]; C. albicans): C. albicans (B); Organism, effect: C. jejuni (microorganisms [1]): C. jejuni (D); Organism, effect: P. aeruginosa (microorganisms [1]): P. aeruginosa (A); Organism, effect: S. pneumoniae (microorganisms [1]; S. pneumoniae): S. pneumoniae (D)
18 | PF-696 (IRSGISAAYARPLR; Peptide with targeting and/or antimicrobial activity) | – | – | – | S. pneumoniae (H) | – | – | Target(s) (microorganisms [3]): Mycobacteria spp
19 | PF-697 (RADARAK; Peptide with targeting and/or antimicrobial activity) | – | – | – | S. pneumoniae (H) | – | – | Organism, effect (microorganisms [1]; C. albicans): C. albicans (H); Target(s) (microorganisms [3]): Mycobacteria spp
20 | PF-698 (SSGRAGVKCRRPTGR; Peptide with targeting and/or antimicrobial activity) | – | – | – | S. pneumoniae (A) | – | – | Organism, effect (microorganisms [1]; C. albicans): C. albicans (H); Organism, effect (microorganisms [1]; E. faecalis): E. faecalis (A); Target(s) (microorganisms [3]): Mycobacteria spp
21 | PF-699 (GRAGVKCRRPTGR; Peptide with targeting and/or antimicrobial activity) | – | – | – | S. pneumoniae (A) | – | – | Target(s) (microorganisms [3]): Mycobacteria spp
22 | PF-700 (LNWPFTGR; Peptide with targeting and/or antimicrobial activity) | – | – | – | S. pneumoniae (C) | – | – | Target(s) (microorganisms [3]): Mycobacteria spp
23 | PF-702 (LSGRLAGRR; Peptide with targeting and/or antimicrobial activity) | – | – | – | S. pneumoniae (H) | – | – | Target(s) (microorganisms [3]): Mycobacteria spp
24 | PF-704 (APAARAAL; Peptide with targeting and/or antimicrobial activity) | – | – | – | S. pneumoniae (C) | – | – | Target(s) (microorganisms [3]): Mycobacteria spp
